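Briefly, cells in 96-well plates were exposed to five compound concentrations for 48 h, and endpoints were estimated by linear interpolation. GI50 is the concentration that inhibits growth by half. TGI: total growth inhibition.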
Experiments:
Assay in all cases: NCI tumour cell line growth inhibition, 48 h
[1] = test system: SF-539 CNS
[2] = test system: HT29 colon
[3] = test system: 786-0 renal
[4] = test system: NCI-H226 lung
[5] = test system: SK-OV-3 ovarian
[6] = test system: M14 melanoma
[7] = test system: HS 578T breast
[8] = test system: SR leukemia
[9] = test system: T-47D breast
[10] = test system: HOP-92 NSCLC
[11] = test system: KM12 colon
[12] = test system: SNB-75 CNS
[13] = test system: UACC-257 melanoma
[14] = test system: TK-10 renal
[15] = test system: NCI-H522 lung
[16] = test system: OVCAR-4 ovarian
[17] = test system: MCF7 breast
[18] = test system: UACC-62 melanoma
[19] = test system: HCT-15 colon
[20] = test system: A549 NSCLC
[21] = test system: LOX IMVI melanoma
[22] = test system: IGROV1 ovarian
[23] = test system: UO-31 renal
[24] = test system: RXF 393 renal
[25] = test system: SN12C renal
[26] = test system: OVCAR-8 ovarian
[27] = test system: HCT-116 colon
[28] = test system: RPMI-8226 leukemia
[29] = test system: MDA-MB-231 breast
[30] = test system: EKVX NSCLC
[31] = test system: SK-MEL-5 melanoma
[32] = test system: HOP-62 NSCLC
[33] = test system: U251 CNS
[34] = test system: HCC-2998 colon
[35] = test system: K-562 leukemia
[36] = test system: SF-295 CNS
[37] = test system: SK-MEL-28 melanoma
[38] = test system: SK-MEL-2 melanoma
[39] = test system: ACHN renal
[40] = test system: SNB-19 CNS
[41] = test system: SF-268 CNS
[42] = test system: MALME-3M melanoma
[43] = test system: HL-60(TB) leukemia
[44] = test system: PC-3 prostate
[45] = test system: NCI-H23 lung
[46] = test system: NCI-H460 lung
[47] = test system: DU-145 prostate
[48] = test system: OVCAR-3 ovarian
[49] = test system: COLO 205 colon
[50] = test system: MOLT-4 leukemia
[51] = test system: NCI/ADR-RES ovarian
[52] = test system: SW-620 colon
[53] = test system: MDA-MB-435
[54] = test system: BT-549 breast
[55] = test system: CCRF-CEM leukemia
[56] = test system: CAKI-1 renal
[57] = test system: OVCAR-5 ovarian
[58] = test system: A498 renal

Structure (SMILES): CCOc1cc2c(Cl)ncnc2c(OCC)c1OCC
- GI50 [1]: 14 µM
- TGI [1]: 27.8 µM
- GI50 [2]: 7.59 µM
- TGI [2]: 32.9 µM
- GI50 [3]: 19 µM
- TGI [3]: 36.8 µM
- GI50 [4]: 12.7 µM
- TGI [4]: 33.3 µM
- GI50 [5]: 16.5 µM
- TGI [5]: 30.5 µM
- GI50 [6]: 6.24 µM
- TGI [6]: 20.1 µM
- GI50 [7]: 2.07 µM
- TGI [7]: 5.45 µM
- GI50 [8]: 1.18 µM
- TGI [8]: 4.31 µM
- GI50 [9]: 6.11 µM
- TGI [9]: 22.8 µM
- GI50 [10]: 3.67 µM
- TGI [10]: 14.2 µM
- GI50 [11]: 4.96 µM
- TGI [11]: 16.4 µM
- GI50 [12]: 3.11 µM
- TGI [12]: 15.9 µM
- GI50 [13]: 6.95 µM
- TGI [13]: 22 µM
- GI50 [14]: 26.9 µM
- TGI [14]: > 76.2 µM
- GI50 [15]: 9.67 µM
- TGI [15]: 23.5 µM
- GI50 [16]: 13 µM
- TGI [16]: 27.7 µM
- GI50 [17]: 2.3 µM
- TGI [17]: 7.55 µM
- GI50 [18]: 6.99 µM
- TGI [18]: 20.2 µM
- GI50 [19]: 2.56 µM
- TGI [19]: 9.07 µM
- GI50 [20]: 24.6 µM
- TGI [20]: > 79.8 µM
- GI50 [21]: 3.39 µM
- TGI [21]: 10 µM
- GI50 [22]: 1.6 µM
- TGI [22]: 3.53 µM
- GI50 [23]: 8.45 µM
- TGI [23]: 23.6 µM
- GI50 [24]: 7.74 µM
- TGI [24]: 22.1 µM
- GI50 [25]: 12 µM
- TGI [25]: 26.2 µM
- GI50 [26]: 6.34 µM
- TGI [26]: 28.5 µM
- GI50 [27]: 3.39 µM
- TGI [27]: 11.9 µM
- GI50 [28]: 3.29 µM
- TGI [28]: 20.6 µM
- GI50 [29]: 11.9 µM
- TGI [29]: 24.9 µM
- GI50 [30]: 13.3 µM
- TGI [30]: 29.5 µM
- GI50 [31]: 3.8 µM
- TGI [31]: 12.1 µM
- GI50 [32]: 15.5 µM
- TGI [32]: 30.9 µM
- GI50 [33]: 7 µM
- TGI [33]: 19.6 µM
- GI50 [34]: 1.88 µM
- TGI [34]: 3.59 µM
- GI50 [35]: 2.72 µM
- TGI [35]: 12.5 µM
- GI50 [36]: 9.25 µM
- TGI [36]: 29.2 µM
- GI50 [37]: 2.15 µM
- TGI [37]: 5.26 µM
- GI50 [38]: 3.61 µM
- TGI [38]: 10.3 µM
- GI50 [39]: 14.1 µM
- TGI [39]: 27.1 µM
- GI50 [40]: 8.8 µM
- TGI [40]: 21.4 µM
- GI50 [41]: 2.84 µM
- TGI [41]: 7.9 µM
- GI50 [42]: 9.5 µM
- TGI [42]: 27.5 µM
- GI50 [43]: 2.35 µM
- TGI [43]: 15.5 µM
- GI50 [44]: 3.2 µM
- TGI [44]: 11.4 µM
- GI50 [45]: 7.71 µM
- TGI [45]: 24.2 µM
- GI50 [46]: 5.21 µM
- TGI [46]: 17.7 µM
- GI50 [47]: 1.75 µM
- TGI [47]: 3.14 µM
- GI50 [48]: 4 µM
- TGI [48]: 10.8 µM
- GI50 [49]: 12.2 µM
- TGI [49]: 25.5 µM
- GI50 [50]: 2.87 µM
- TGI [50]: 10.4 µM
- GI50 [51]: 25.6 µM
- TGI [51]: > 64.3 µM
- GI50 [52]: 2.88 µM
- TGI [52]: 9.24 µM
- GI50 [53]: 6.06 µM
- TGI [53]: 21.2 µM
- GI50 [54]: 4.82 µM
- TGI [54]: 14.5 µM
- GI50 [55]: 2.6 µM
- TGI [55]: 6.85 µM
- GI50 [56]: 1.56 µM
- TGI [56]: 3.03 µM
- GI50 [57]: 17.9 µM
- TGI [57]: 33.4 µM
- GI50 [58]: 6.48 µM
- TGI [58]: 19.1 µM

— PubChem BioAssay (NCI)
